Square brackets hold non-standard residues; d marks the D form. Peptide text beside a SMILES is read from it. d(aThr) = C[C@@H](O)[C@@H](N)C(=O)O; Dhb = C/C=C(\N)C(=O)O
Biological target: Transient receptor potential cation channel subfamily V member 1 (Homo sapiens, UniProt Q8NER1)
Assay: Antagonist activity at human TRPV1 expressed in HEK293 cell assessed as inhibition of capsaicin-induced calcium flux by fluorometric analysis

Sequence of Transient receptor potential cation channel subfamily V member 1 (Q8NER1 whole entry): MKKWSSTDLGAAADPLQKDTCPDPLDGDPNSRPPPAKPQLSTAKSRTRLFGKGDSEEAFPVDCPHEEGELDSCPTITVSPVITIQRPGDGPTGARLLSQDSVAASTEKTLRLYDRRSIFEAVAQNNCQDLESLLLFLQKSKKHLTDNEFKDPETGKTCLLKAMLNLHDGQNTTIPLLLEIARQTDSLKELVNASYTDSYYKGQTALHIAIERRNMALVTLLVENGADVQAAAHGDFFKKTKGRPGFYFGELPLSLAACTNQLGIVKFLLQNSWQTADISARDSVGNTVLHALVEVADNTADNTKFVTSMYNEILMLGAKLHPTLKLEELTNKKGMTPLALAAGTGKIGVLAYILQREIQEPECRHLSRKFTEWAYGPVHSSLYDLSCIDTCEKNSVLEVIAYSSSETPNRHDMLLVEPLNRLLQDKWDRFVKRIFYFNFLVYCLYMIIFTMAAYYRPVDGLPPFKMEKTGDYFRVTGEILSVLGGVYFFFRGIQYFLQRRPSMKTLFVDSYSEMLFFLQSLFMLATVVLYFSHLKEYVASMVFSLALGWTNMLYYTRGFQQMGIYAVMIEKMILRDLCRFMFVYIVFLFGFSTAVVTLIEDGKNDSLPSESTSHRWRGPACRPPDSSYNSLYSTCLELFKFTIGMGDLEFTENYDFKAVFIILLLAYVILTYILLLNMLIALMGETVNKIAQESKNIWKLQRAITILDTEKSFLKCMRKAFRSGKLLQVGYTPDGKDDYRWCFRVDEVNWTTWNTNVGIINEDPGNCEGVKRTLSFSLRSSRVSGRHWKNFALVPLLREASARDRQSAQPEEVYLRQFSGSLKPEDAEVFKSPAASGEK

IC50: 1660 µM
SMILES: C/C=C(\NC(=O)[C@H](C)NC(=O)[C@@H](NC(=O)[C@H](NC(=O)[C@H](Cc1ccccc1)NC(=O)[C@@H](CC(C)C)NC(=O)[C@@H](Cc1ccccc1)NC(C)=O)[C@@H](C)O)C(C)C)C(=O)O [Nobilamide A] (Ac-[dF][dL]F[d(aThr)]VA[Dhb]-OH)
